Where two headings read alike, the source gives them in different places. Each block holds one molecule with its values, some of them ahead of it.
System: PMA-differentiated THP-1 cells
Assay: IL-1β production in PMA-differentiated THP-1 cells stimulated with gramicidin (hTHP-1 assay containing 2% fetal bovine serum; Procedures 1 and 2)
Format: cell-based, human
Details: 2% fetal bovine serum
Outline: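 Secreted IL-1β, read by HTRF, after gramicidin challenge (5 μM, 2 h) of THP-1 cells differentiated with PMA (20 ng/ml, 16-18 h) and plated at 50,000 cells/well in 2% FBS medium. Compounds, 0.0017-100 μM final with 0.37% DMSO, were added 1 h before stimulation.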

[1] = Homo sapiens, THP-1, Table B2, numeric bounds, read-out: hTHP-1 IC50
[2] = Homo sapiens, THP-1, Table B2, class symbols, read-out: hTHP-1 IC50
[3] = Table B2, class symbols, read-out: hTHP-1 IC50
[4] = Homo sapiens, THP-1, Table B3, hTHP-1 assay, class symbols, read-out: IC50

Structure (SMILES): CC1(C)CCc2c1nc1c(c2NC(=O)N=S(N)(=O)c2cnc(C(C)(O)CO)s2)CCC1 (single isomer, unassigned) [Compound 201d, (R, S) or (S, S) or (S, R) or (R, R)-2-(1.2-Dihydroxypropan-2-yl)-N′-((3,3-dimethyl-1,2,3,5,6.7-hexahydrodicyclopenta [b,e]pvridin-8-yl)carbamoyl)thiazole-5-sulfonimidamide]
IC50 [3]: 5 to 30 µM

Structure (SMILES): CC(C)(O)c1sc(S(N)(=O)=NC(=O)Nc2c3c(nc4c2CCC4)CCC3)cc1F (centres unmarked) [Compound 678, 4-Fluoro-N′-((1,2,3,5,6,7-hexahydrodicyclopenta[b,e]pyridin-8-yl)carbamoyl)-5-(2-hydroxypropan-2-yl)thiophene-2-sulfonimidamide]
IC50 [2]: 1 to 5 µM

Structure (SMILES): CCc1ccsc1S(N)(=O)=NC(=O)Nc1c2c(nc3c1CC[C@H]3C)CCC2 (stereo partly drawn) [Example 631, 3-Ethyl-N′-(((R)-3-methyl-1,2,3,5,6,7-hexahydrodicyclopenta[b,e]pyridin-8-yl)carbamoyl)thiophene-2-sulfonimidamide]
IC50 [4]: 1 to 5 µM

Structure (SMILES): CCc1c(C(F)(F)F)nc2c(c1NC(=O)N=S(N)(=O)c1cc(C(C)(C)O)cs1)CCC2 (single isomer, unassigned) [Compound 698a, (S) or (R)-N′-((3-ethyl-2-(trifluoromethyl)-6,7-dihydro-5H-cyclopenta[b]pyridin-4-yl)carbamoyl)-4-(2-hydroxypropan-2-yl)thiophene-2-sulfonimidamide]
IC50 [3]: 1 to 5 µM

Structure (SMILES): CC(C)c1nc2c(cc1NC(=O)N=S(N)(=O)c1cnc(C(C)(C)O)s1)CCC2 (centres unmarked) [Compound 601, 2-(2-Hydroxypropan-2-yl)-N′-((2-isopropyl-6,7-dihydro-5H-cyclopenta[b]pyridin-3-yl)carbamoyl)thiazole-5-sulfonimidamide]
IC50 [2]: 5 to 30 µM

Second part, the molecule after the results:

IC50 [1]: > 30 µM
Structure (SMILES): CC(C)(O)c1scc(S(N)(=O)=NC(=O)Nc2c3c(nc4c2CCC4)CCC3)c1F (single isomer, unassigned) [Compound 701b, (S) or (R)-4-Fluoro-N′-((1,2,3,5,6,7-hexahydrodicyclopenta [b,e]pyridin-8-yl)carbamoyl)-5-(2-hydroxypropan-2-yl)thiophene-3-sulfonimidamide]

IC50 [2]: 0.2 to 1 µM
Structure (SMILES): Cc1c(C(F)(F)F)nc2c(c1NC(=O)N=S(N)(=O)c1ccn(C(C)C)n1)CCC2 (single isomer, unassigned) [Compound 628b, (R) or (S)-1-Isopropyl-N′-((3-methyl-2-(trifluoromethyl)-6,7-dihydro-5H-cyclopenta[b]pyridin-4-yl)carbamoyl)-1H-pyrazole-3-sulfonimidamide]

IC50 [4]: 1 to 5 µM
Structure (SMILES): CCn1nc(S(N)(=O)=NC(=O)Nc2c3c(nc4c2CCC4(C)C)CCC3)cc1CO (centres unmarked) [Example 591, N′-((3,3-dimethyl-1,2,3,5,6,7-hexahydrodicyclopenta[b,e]pyridin-8-yl)carbamoyl)-1-ethyl-5-(hydroxymethyl)-1H-pyrazole-3-sulfonimidamide]

IC50 [3]: 1 to 5 µM
Structure (SMILES): CCC1CCc2c1nc1c(c2NC(=O)N=S(N)(=O)c2sc(C(C)(C)O)cc2F)CCC1 (single isomer, unassigned) [Compound 671c, (R, S) or (R, R) or (S, R) or (S, S)-N′-((3-ethyl-1,2,3,5,6,7-hexahydrodicyclopenta [b,e]pyridin-8-yl)carbamoyl)-3-fluoro-5-(2-hydroxypropan-2-yl) thiophene-2-sulfonimidamide]

IC50 [1]: > 30 µM
Structure (SMILES): Cc1c(C2(C)CC2)nc2c(c1NC(=O)N=S(N)(=O)c1cnc(C(C)(O)CO)s1)CCC2 (centres unmarked) [Compound 707]

IC50 [2]: 1 to 5 µM
Structure (SMILES): Cc1c(C(F)F)nc2c(c1NC(=O)N=S(N)(=O)c1cnc(C(C)(C)O)s1)CCC2 (centres unmarked) [Compound 647, N′-((2-(difluoromethyl)-3-methyl-6,7-dihydro-5H-cyclopenta[b]pyridin-4-yl)carbamoyl)-2-(2-hydroxypropan-2-yl)thiazole-5-sulfonimidamide]
